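The concentration for 50% growth inhibition is given as GI50. TGI: concentration producing complete growth inhibition.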
Columns and labels:
Assay in all cases: NCI tumour cell line growth inhibition, 384-well format
U251 glioblastoma = tested on: U251 glioblastoma
HL-60(TB) leukemia = tested on: HL-60(TB) leukemia
HS 578T breast = tested on: HS 578T breast
EKVX NSCLC = tested on: EKVX NSCLC
MALME-3M melanoma = tested on: MALME-3M melanoma
DU-145 prostate = tested on: DU-145 prostate
LOX IMVI melanoma = tested on: LOX IMVI melanoma
MDA-MB-231 breast = tested on: MDA-MB-231 breast
BT-549 breast = tested on: BT-549 breast
CAKI-1 renal = tested on: CAKI-1 renal
KM12 colon = tested on: KM12 colon
COLO 205 colon = tested on: COLO 205 colon
IGROV1 ovarian = tested on: IGROV1 ovarian
SK-MEL-28 melanoma = tested on: SK-MEL-28 melanoma
786-0 renal = tested on: 786-0 renal
A498 renal = tested on: A498 renal
UACC-62 melanoma = tested on: UACC-62 melanoma
SK-MEL-2 melanoma = tested on: SK-MEL-2 melanoma
SN12C renal = tested on: SN12C renal
MDA-MB-468 breast = tested on: MDA-MB-468 breast
SW-620 colon = tested on: SW-620 colon
PC-3 prostate = tested on: PC-3 prostate
NCI-H460 NSCLC = tested on: NCI-H460 NSCLC
SNB-75 CNS = tested on: SNB-75 CNS
SK-MEL-5 melanoma = tested on: SK-MEL-5 melanoma
HCT-15 colon = tested on: HCT-15 colon
A549 NSCLC = tested on: A549 NSCLC
HCT-116 colon = tested on: HCT-116 colon
RXF 393 renal = tested on: RXF 393 renal
HOP-62 NSCLC = tested on: HOP-62 NSCLC
NCI-H522 lung = tested on: NCI-H522 lung
HCC-2998 colon = tested on: HCC-2998 colon
SF-295 CNS = tested on: SF-295 CNS
MOLT-4 leukemia = tested on: MOLT-4 leukemia
SF-539 CNS = tested on: SF-539 CNS
NCI-H23 lung = tested on: NCI-H23 lung
MDA-MB-435 melanoma = tested on: MDA-MB-435 melanoma
RPMI-8226 leukemia = tested on: RPMI-8226 leukemia
M14 melanoma = tested on: M14 melanoma
OVCAR-8 ovarian = tested on: OVCAR-8 ovarian
NCI-H322M lung = tested on: NCI-H322M lung
CCRF-CEM leukemia = tested on: CCRF-CEM leukemia
SR leukemia = tested on: SR leukemia
NCI/ADR-RES ovarian = tested on: NCI/ADR-RES ovarian
OVCAR-3 ovarian = tested on: OVCAR-3 ovarian
TK-10 renal = tested on: TK-10 renal
UACC-257 melanoma = tested on: UACC-257 melanoma

Cc1cc(-c2nc(C(=O)Nc3cc4oc(N5CCOCC5)nc4nc3N3CC[C@@H](O)C3)co2)ccn1
GI50 (U251 glioblastoma): 32.7 µM | TGI (U251 glioblastoma): > 100 µM | GI50 (HL-60(TB) leukemia): 17.7 µM | TGI (HL-60(TB) leukemia): 44.2 µM | GI50 (HS 578T breast): 2.37 µM | TGI (HS 578T breast): 23.4 µM | GI50 (EKVX NSCLC): 14.2 µM | TGI (EKVX NSCLC): 71.2 µM | GI50 (MALME-3M melanoma): 19.4 µM | TGI (MALME-3M melanoma): > 100 µM | GI50 (DU-145 prostate): 34.1 µM | TGI (DU-145 prostate): > 100 µM | GI50 (LOX IMVI melanoma): 39.3 µM | TGI (LOX IMVI melanoma): > 100 µM | GI50 (MDA-MB-231 breast): 36.9 µM | TGI (MDA-MB-231 breast): > 100 µM | GI50 (BT-549 breast): 16.3 µM | TGI (BT-549 breast): 82.1 µM | GI50 (CAKI-1 renal): 8.01 µM | TGI (CAKI-1 renal): 38.3 µM | GI50 (KM12 colon): 0.424 µM | TGI (KM12 colon): > 100 µM | GI50 (COLO 205 colon): 20.4 µM | TGI (COLO 205 colon): 50.2 µM | GI50 (IGROV1 ovarian): 11.4 µM | TGI (IGROV1 ovarian): 35.6 µM | GI50 (SK-MEL-28 melanoma): 49.6 µM | TGI (SK-MEL-28 melanoma): > 100 µM | GI50 (786-0 renal): 43.4 µM | TGI (786-0 renal): > 100 µM | GI50 (A498 renal): 12.3 µM | TGI (A498 renal): > 100 µM | GI50 (UACC-62 melanoma): 22.6 µM | TGI (UACC-62 melanoma): > 100 µM | GI50 (SK-MEL-2 melanoma): 15.5 µM | TGI (SK-MEL-2 melanoma): 41.6 µM | GI50 (SN12C renal): 21.5 µM | TGI (SN12C renal): > 100 µM | GI50 (MDA-MB-468 breast): 8.63 µM | TGI (MDA-MB-468 breast): 33.1 µM | GI50 (SW-620 colon): 28.5 µM | TGI (SW-620 colon): > 100 µM | GI50 (PC-3 prostate): 35.8 µM | TGI (PC-3 prostate): > 100 µM | GI50 (NCI-H460 NSCLC): 29.8 µM | TGI (NCI-H460 NSCLC): > 100 µM | GI50 (SNB-75 CNS): 11.2 µM | TGI (SNB-75 CNS): 58.8 µM | GI50 (SK-MEL-5 melanoma): 11.6 µM | TGI (SK-MEL-5 melanoma): 59 µM | GI50 (HCT-15 colon): 20.2 µM | TGI (HCT-15 colon): > 100 µM | GI50 (A549 NSCLC): 32.3 µM | TGI (A549 NSCLC): > 100 µM | GI50 (HCT-116 colon): 19.4 µM | TGI (HCT-116 colon): > 100 µM | GI50 (RXF 393 renal): 12 µM | TGI (RXF 393 renal): 64.1 µM | GI50 (HOP-62 NSCLC): 15.3 µM | TGI (HOP-62 NSCLC): > 100 µM | GI50 (NCI-H522 lung): 4.32 µM | TGI (NCI-H522 lung): 22.7 µM | GI50 (HCC-2998 colon): 21.2 µM | TGI (HCC-2998 colon): > 100 µM | GI50 (SF-295 CNS): 53.7 µM | TGI (SF-295 CNS): > 100 µM | GI50 (MOLT-4 leukemia): 13.2 µM | TGI (MOLT-4 leukemia): 26.6 µM | GI50 (SF-539 CNS): 23.2 µM | TGI (SF-539 CNS): > 100 µM | GI50 (NCI-H23 lung): 13.1 µM | TGI (NCI-H23 lung): 47.5 µM | GI50 (MDA-MB-435 melanoma): 29.3 µM | TGI (MDA-MB-435 melanoma): > 100 µM | GI50 (RPMI-8226 leukemia): 15.5 µM | TGI (RPMI-8226 leukemia): 39.4 µM | GI50 (M14 melanoma): 27.9 µM | TGI (M14 melanoma): > 100 µM | GI50 (OVCAR-8 ovarian): 38.1 µM | TGI (OVCAR-8 ovarian): > 100 µM | GI50 (NCI-H322M lung): 30.1 µM | TGI (NCI-H322M lung): > 100 µM | GI50 (CCRF-CEM leukemia): 21.4 µM | TGI (CCRF-CEM leukemia): 62.2 µM | GI50 (SR leukemia): 18 µM | TGI (SR leukemia): 37.3 µM | GI50 (NCI/ADR-RES ovarian): > 100 µM | TGI (NCI/ADR-RES ovarian): > 100 µM | GI50 (OVCAR-3 ovarian): 13.3 µM | TGI (OVCAR-3 ovarian): 42 µM | GI50 (TK-10 renal): 18.6 µM | TGI (TK-10 renal): > 100 µM | GI50 (UACC-257 melanoma): 37.5 µM | TGI (UACC-257 melanoma): > 100 µM

C[C@@H](Oc1cc(-n2cnc3ccc(CN4CCN(C)CC4)cc32)sc1C(N)=O)c1ccccc1C(F)(F)F
GI50 (U251 glioblastoma): 0.689 µM | TGI (U251 glioblastoma): 5.08 µM | GI50 (HL-60(TB) leukemia): 0.203 µM | TGI (HL-60(TB) leukemia): 0.352 µM | GI50 (HS 578T breast): 1.01 µM | TGI (HS 578T breast): 2.58 µM | GI50 (EKVX NSCLC): 0.734 µM | TGI (EKVX NSCLC): 4.19 µM | GI50 (MALME-3M melanoma): 1.15 µM | TGI (MALME-3M melanoma): 2.37 µM | GI50 (DU-145 prostate): 0.346 µM | TGI (DU-145 prostate): 1.21 µM | GI50 (LOX IMVI melanoma): 0.588 µM | TGI (LOX IMVI melanoma): 1.95 µM | GI50 (MDA-MB-231 breast): 0.679 µM | TGI (MDA-MB-231 breast): 10.6 µM | GI50 (BT-549 breast): 0.422 µM | TGI (BT-549 breast): 1.91 µM | GI50 (CAKI-1 renal): 1.63 µM | TGI (CAKI-1 renal): 4.5 µM | GI50 (KM12 colon): 0.296 µM | TGI (KM12 colon): 0.982 µM | GI50 (COLO 205 colon): 0.256 µM | TGI (COLO 205 colon): 0.617 µM | GI50 (IGROV1 ovarian): 0.844 µM | TGI (IGROV1 ovarian): 11.4 µM | GI50 (SK-MEL-28 melanoma): 1.53 µM | TGI (SK-MEL-28 melanoma): 2.94 µM | GI50 (786-0 renal): 1.17 µM | TGI (786-0 renal): 2.73 µM | GI50 (A498 renal): 0.871 µM | TGI (A498 renal): 12.2 µM | GI50 (UACC-62 melanoma): 0.613 µM | TGI (UACC-62 melanoma): 2.1 µM | GI50 (SK-MEL-2 melanoma): 0.272 µM | TGI (SK-MEL-2 melanoma): 0.839 µM | GI50 (SN12C renal): 2.89 µM | TGI (SN12C renal): 15.4 µM | GI50 (MDA-MB-468 breast): 0.214 µM | TGI (MDA-MB-468 breast): 0.446 µM | GI50 (SW-620 colon): 0.34 µM | TGI (SW-620 colon): 1.51 µM | GI50 (PC-3 prostate): 0.804 µM | TGI (PC-3 prostate): 11.4 µM | GI50 (NCI-H460 NSCLC): 0.32 µM | TGI (NCI-H460 NSCLC): 0.906 µM | GI50 (SNB-75 CNS): 1.68 µM | TGI (SNB-75 CNS): 5.3 µM | GI50 (SK-MEL-5 melanoma): 0.359 µM | TGI (SK-MEL-5 melanoma): 1.64 µM | GI50 (HCT-15 colon): 0.374 µM | TGI (HCT-15 colon): 1.2 µM | GI50 (A549 NSCLC): 0.819 µM | TGI (A549 NSCLC): 6.85 µM | GI50 (HCT-116 colon): 0.534 µM | TGI (HCT-116 colon): 3.04 µM | GI50 (RXF 393 renal): 0.192 µM | TGI (RXF 393 renal): 0.565 µM | GI50 (HOP-62 NSCLC): 0.465 µM | TGI (HOP-62 NSCLC): 2.34 µM | GI50 (NCI-H522 lung): 0.206 µM | TGI (NCI-H522 lung): 0.445 µM | GI50 (HCC-2998 colon): 0.595 µM | TGI (HCC-2998 colon): 1.89 µM | GI50 (SF-295 CNS): 1.05 µM | TGI (SF-295 CNS): 9.34 µM | GI50 (MOLT-4 leukemia): 0.193 µM | TGI (MOLT-4 leukemia): 0.342 µM | GI50 (SF-539 CNS): 0.462 µM | TGI (SF-539 CNS): 1.72 µM | GI50 (NCI-H23 lung): 0.384 µM | TGI (NCI-H23 lung): 1.68 µM | GI50 (MDA-MB-435 melanoma): 0.244 µM | TGI (MDA-MB-435 melanoma): 0.602 µM | GI50 (RPMI-8226 leukemia): 0.25 µM | TGI (RPMI-8226 leukemia): 0.734 µM | GI50 (M14 melanoma): 0.573 µM | TGI (M14 melanoma): 1.86 µM | GI50 (OVCAR-8 ovarian): 0.348 µM | TGI (OVCAR-8 ovarian): 1.29 µM | GI50 (NCI-H322M lung): 1.78 µM | TGI (NCI-H322M lung): 9.79 µM | GI50 (CCRF-CEM leukemia): 0.18 µM | TGI (CCRF-CEM leukemia): 0.329 µM | GI50 (SR leukemia): 0.146 µM | TGI (SR leukemia): 0.294 µM | GI50 (NCI/ADR-RES ovarian): 1.69 µM | TGI (NCI/ADR-RES ovarian): 3.59 µM | GI50 (OVCAR-3 ovarian): 0.227 µM | TGI (OVCAR-3 ovarian): 0.534 µM | GI50 (TK-10 renal): 1.22 µM | TGI (TK-10 renal): 6.03 µM | GI50 (UACC-257 melanoma): 1.15 µM | TGI (UACC-257 melanoma): 2.37 µM

Reference: PubChem BioAssay (NCI)
